Earlier results, collected in patent publication US20230106284A1, “SYSTEM AND METHOD FOR GENERATING POTENTIAL DRUG COMPOSITIONS FOR DISEASE TARGET” (Innoplexus AG, priority 2020, published 2023).

Details: oral delivery

- bioavailability: about 70%
- volume of distribution: 14.37±2.69 litter
Structure (SMILES): O=C(O)c1ccc(-n2nc(-c3ccccc3O)nc2-c2ccccc2O)cc1 [DFX, deferasirox]
